The values below come from US20260284044A1, “PHARMACEUTICAL COMPOSITIONS OF VARENICLINE AND PROCESS THEREOF” (TENSHI KAIZEN L PRIVATE LIMITED, priority 2023, published 2026).

For data set [1] the following is noted: FDA, cited from earlier work.
Data set [2] can be described thus: N-nitroso varenicline content of API and tablets, initial and on stability storage. The class given is physicochemical.

As for `O=NN1CC2CC(C1)c1cc3nccnc3cc12` [N-nitroso-varenicline], the “Intake limit considered reasonably safe for humans” value in data set [1] (based on lifetime exposure) is 37 nanograms per day. The “Interim acceptable intake limit” value in data set [1] (interim limit for distribution in the US) was at most 185 ng per day.
For the compound “(2R,3R)-2,3-dihydroxybutanedioic acid;5,8,14-triazatetracyclo [10.3.1.02,11.04,9]hexadeca-2,4,6,8,10-pentaene [Varenicline API]”, the “Results (nitroso varenicline)” value in data set [2] (Batch API (EL-01-A179-2001003), limit NMT 18.5 ppm) was “Less than 2 ppm”. The “Initial (ppm) (N-nitroso varenicline)” value in data set [2] (Orally disintegrating tablets 1 mg and API, initial data) is given as 1.73 ppm.
